Experimental data from patent US9580416B2, “Inhibitors of Bruton's tyrosine kinase” (PHARMACYCLICS LLC, priority 2014, dated 2017).
Each block holds one compound with its values, some of them ahead of it.

Columns and labels:
Assay type in all cases: biochemical
Btk = Btk (Homo sapiens, UniProt Q06187); assay: Btk kinase activity, TR-FRET assay; settings: read-out: Btk (IC50)
Procedure, shortened: (§1)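 Enzyme (Btk 0.5 nM; Lck 6 nM) reacted 1 h with inhibitor, ATP at Km and biotin-peptide substrate in pH 7.4 buffer, 10% DMSO. Phosphopeptide detected by Eu-p-Tyr100 antibody plus streptavidin-APC (665/615 nm). IC50 calculated from fitted Ki(app) via ATP/Km correction plus half total enzyme.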

Lck = Lck (Homo sapiens, UniProt P06239); assay: Lck kinase activity, TR-FRET assay; settings: read-out: LCK (IC50)
Lck, sequence (P06239 whole entry, species assumed): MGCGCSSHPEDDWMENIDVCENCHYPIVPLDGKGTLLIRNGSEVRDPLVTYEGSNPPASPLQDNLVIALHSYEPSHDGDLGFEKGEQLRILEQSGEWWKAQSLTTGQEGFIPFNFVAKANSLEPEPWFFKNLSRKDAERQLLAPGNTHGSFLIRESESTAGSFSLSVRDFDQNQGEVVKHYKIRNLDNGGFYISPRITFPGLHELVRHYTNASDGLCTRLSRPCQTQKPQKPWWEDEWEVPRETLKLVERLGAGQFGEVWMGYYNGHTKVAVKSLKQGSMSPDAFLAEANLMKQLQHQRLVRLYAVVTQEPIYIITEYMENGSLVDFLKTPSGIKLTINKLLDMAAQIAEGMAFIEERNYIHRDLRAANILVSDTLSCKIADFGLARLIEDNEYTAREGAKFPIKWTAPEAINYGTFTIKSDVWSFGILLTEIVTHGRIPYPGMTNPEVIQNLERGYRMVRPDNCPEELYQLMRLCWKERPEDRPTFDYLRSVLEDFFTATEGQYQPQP
Procedure, shortened: as §1

EGFR = EGFR (Homo sapiens, UniProt P00533); assay: Inhibition of a panel of kinases, in vitro HotSpot kinase assay: EGFR
EGFR, sequence (P00533 25-1210): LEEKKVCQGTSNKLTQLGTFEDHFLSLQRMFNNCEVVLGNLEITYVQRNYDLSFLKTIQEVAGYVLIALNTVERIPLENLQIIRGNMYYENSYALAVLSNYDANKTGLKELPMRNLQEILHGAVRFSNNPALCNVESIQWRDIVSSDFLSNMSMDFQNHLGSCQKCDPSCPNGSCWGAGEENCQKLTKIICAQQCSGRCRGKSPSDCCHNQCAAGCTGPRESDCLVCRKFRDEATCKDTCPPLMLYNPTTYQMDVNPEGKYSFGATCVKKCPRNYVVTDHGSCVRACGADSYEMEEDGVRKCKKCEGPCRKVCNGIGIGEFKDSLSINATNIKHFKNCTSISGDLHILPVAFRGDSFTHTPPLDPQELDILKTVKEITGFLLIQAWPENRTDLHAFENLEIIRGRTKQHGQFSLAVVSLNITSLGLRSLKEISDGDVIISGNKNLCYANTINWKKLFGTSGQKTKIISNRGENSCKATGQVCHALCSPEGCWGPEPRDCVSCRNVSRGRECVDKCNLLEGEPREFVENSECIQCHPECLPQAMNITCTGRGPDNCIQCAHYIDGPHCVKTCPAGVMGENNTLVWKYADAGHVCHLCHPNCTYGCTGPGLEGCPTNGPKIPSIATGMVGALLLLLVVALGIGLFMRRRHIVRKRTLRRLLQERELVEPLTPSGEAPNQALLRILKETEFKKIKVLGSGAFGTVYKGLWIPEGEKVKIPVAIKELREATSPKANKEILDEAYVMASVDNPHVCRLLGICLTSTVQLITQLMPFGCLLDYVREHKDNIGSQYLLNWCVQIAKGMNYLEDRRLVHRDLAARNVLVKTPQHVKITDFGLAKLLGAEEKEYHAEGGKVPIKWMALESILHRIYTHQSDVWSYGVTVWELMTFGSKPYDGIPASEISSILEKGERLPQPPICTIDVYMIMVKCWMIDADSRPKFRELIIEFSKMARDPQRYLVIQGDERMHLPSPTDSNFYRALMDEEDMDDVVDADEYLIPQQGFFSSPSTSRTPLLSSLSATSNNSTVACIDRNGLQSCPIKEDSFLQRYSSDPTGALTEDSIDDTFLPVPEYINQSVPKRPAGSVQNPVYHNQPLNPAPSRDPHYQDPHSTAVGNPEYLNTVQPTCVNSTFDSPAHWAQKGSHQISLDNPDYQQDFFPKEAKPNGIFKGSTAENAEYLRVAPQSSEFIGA
Procedure: (§2) The degree of inhibition of a panel of kinases is determined using the in vitro HotSpot kinase assay (purified enzymes, ^33P-ATP, an appropriate substrate and 1 uM ATP).

JAK3 = target: T1, JAK3 (Homo sapiens, UniProt P52333); assay: Inhibition of a panel of kinases, in vitro HotSpot kinase assay: JAK3
T1 sequence (P52333 1-1124): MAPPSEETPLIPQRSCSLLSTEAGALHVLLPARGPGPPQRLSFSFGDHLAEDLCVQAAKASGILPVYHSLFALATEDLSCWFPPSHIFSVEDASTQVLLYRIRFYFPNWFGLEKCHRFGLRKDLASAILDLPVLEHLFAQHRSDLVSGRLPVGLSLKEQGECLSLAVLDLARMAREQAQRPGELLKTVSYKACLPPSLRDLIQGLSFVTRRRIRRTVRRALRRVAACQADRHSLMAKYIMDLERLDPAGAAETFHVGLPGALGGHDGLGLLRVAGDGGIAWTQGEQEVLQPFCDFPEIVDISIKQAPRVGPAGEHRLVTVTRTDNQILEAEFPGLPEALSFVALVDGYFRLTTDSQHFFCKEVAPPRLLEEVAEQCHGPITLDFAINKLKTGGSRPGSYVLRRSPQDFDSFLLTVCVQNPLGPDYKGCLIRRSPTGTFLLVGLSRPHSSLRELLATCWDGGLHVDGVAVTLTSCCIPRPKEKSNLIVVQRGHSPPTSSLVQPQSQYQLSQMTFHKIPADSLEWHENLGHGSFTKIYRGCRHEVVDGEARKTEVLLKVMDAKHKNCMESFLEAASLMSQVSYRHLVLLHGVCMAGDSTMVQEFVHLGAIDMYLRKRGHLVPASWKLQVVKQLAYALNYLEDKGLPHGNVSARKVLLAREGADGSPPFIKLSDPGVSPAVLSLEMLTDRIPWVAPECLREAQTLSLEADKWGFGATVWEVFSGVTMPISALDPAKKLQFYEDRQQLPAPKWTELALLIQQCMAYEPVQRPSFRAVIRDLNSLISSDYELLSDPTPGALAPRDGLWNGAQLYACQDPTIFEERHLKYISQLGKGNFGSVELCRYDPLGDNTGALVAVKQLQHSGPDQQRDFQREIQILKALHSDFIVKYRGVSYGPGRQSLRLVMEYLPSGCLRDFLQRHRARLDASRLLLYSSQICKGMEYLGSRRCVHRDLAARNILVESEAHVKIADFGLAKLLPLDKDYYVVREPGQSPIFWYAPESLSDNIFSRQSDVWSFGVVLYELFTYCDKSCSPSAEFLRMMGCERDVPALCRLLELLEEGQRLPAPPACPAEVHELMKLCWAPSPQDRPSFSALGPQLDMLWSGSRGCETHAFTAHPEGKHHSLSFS
Procedure: as §2

Btk, sequence (Q06187 whole entry): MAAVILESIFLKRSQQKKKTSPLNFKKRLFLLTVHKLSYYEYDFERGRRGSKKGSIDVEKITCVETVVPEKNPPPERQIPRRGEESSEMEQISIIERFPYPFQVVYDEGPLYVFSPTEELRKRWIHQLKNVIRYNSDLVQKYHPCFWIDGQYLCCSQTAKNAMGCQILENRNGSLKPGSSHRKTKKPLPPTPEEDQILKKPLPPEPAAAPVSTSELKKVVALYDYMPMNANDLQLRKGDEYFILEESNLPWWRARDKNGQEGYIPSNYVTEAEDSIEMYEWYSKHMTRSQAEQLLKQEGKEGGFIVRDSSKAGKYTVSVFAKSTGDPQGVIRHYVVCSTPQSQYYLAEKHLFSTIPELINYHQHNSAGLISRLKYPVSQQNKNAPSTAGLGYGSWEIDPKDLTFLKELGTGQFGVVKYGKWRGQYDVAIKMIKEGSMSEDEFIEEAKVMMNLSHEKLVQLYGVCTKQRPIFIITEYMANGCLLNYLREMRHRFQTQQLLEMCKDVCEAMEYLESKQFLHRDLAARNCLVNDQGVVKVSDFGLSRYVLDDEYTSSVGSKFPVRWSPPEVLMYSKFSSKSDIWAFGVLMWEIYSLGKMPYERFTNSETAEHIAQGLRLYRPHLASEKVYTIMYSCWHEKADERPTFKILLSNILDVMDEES

SMILES: CCNC(=O)N1CC[C@@H](Nc2n[nH]c3nccc(Oc4ccc(C(=O)Nc5cc(C(F)(F)F)ccn5)cc4)c23)C1 [compound 188]
IC50 (Btk): < 0.1 µM | IC50 (Lck): 0.1 to 1 µM | IC50 (EGFR): 1 to 10 µM | IC50 (JAK3): > 10 µM

SMILES: C=CC(=O)N1CCC[C@@H](Nc2n[nH]c3nccc(Oc4cccc(C(=O)Nc5cc(C(F)(F)F)ccn5)c4)c23)C1 [compound 191]
IC50 (Btk): < 0.1 µM | IC50 (Lck): 0.1 to 1 µM | IC50 (EGFR): < 0.1 µM | IC50 (JAK3): < 0.1 µM

SMILES: C=CC(=O)N1CCC[C@@H](Nc2n[nH]c3nccc(Oc4ccc(-c5nc6ccccc6s5)cc4)c23)C1 [compound 192]
IC50 (Btk): < 0.1 µM | IC50 (Lck): 0.1 to 1 µM | IC50 (EGFR): 0.1 to 1 µM | IC50 (JAK3): 0.1 to 1 µM

SMILES: C=CC(=O)N1CCC[C@@H](Nc2n[nH]c3nccc(Oc4ccc(-c5nc6ccccc6o5)cc4)c23)C1 [compound 194, 1-[(3R)-3-({4-[4-(1,3-benzoxazol-2-yl)phenoxy]-1H-pyrazolo[3,4-b]pyridin-3-yl}amino)piperidin-1-yl]prop-2-en-1-one]
IC50 (Btk): < 0.1 µM | IC50 (Lck): 1 to 10 µM | IC50 (EGFR): 1 to 10 µM | IC50 (JAK3): 0.1 to 1 µM

SMILES: CN1CCC(C(=O)N2CC[C@@H](Nc3n[nH]c4nccc(Oc5ccc(C(=O)Nc6cc(C(F)(F)F)ccn6)cc5)c34)C2)CC1 [compound 199, 4-[(3-{[1-(1-methylpiperidin-4-carbonyl)pyrrolidin-3-yl]amino}-1H-pyrazolo[3,4-b]pyridin-4-yl)oxy]-N-[4-(trifluoromethyl)pyridin-2-yl]benzamide]
IC50 (Btk): < 0.1 µM | IC50 (Lck): 0.1 to 1 µM | IC50 (EGFR): 0.1 to 1 µM | IC50 (JAK3): > 10 µM

SMILES: C=CC(=O)N1CCC[C@@H](Nc2n[nH]c3nccc(Oc4ccc(NC(=O)Nc5cc(C(F)(F)F)ccn5)cc4)c23)C1 [compound 201, 1-{4-[(3-{[(3R)-1-(prop-2-enoyl)piperidin-3-yl]amino}-1H-pyrazolo[3,4-b]pyridin-4-yl)oxy]phenyl}-3-[4-(trifluoromethyl)pyridin-2-yl]urea]
IC50 (Btk): < 0.1 µM | IC50 (Lck): < 0.1 µM | IC50 (EGFR): < 0.1 µM | IC50 (JAK3): < 0.1 µM

SMILES: CN1CCC(C(=O)N2CCC[C@@H](Nc3n[nH]c4nccc(Oc5ccc(C(=O)Nc6cc(C(F)(F)F)ccn6)cc5)c34)C2)CC1 [compound 204, 4-[(3-{[(3R)-1-(1-methylpiperidine-4-carbonyl)piperidin-3-yl]amino}-1H-pyrazolo[3,4-b]pyridin-4-yl)oxy]-N-[4-(trifluoromethyl)pyridin-2-yl]benzamide]
IC50 (Btk): < 0.1 µM | IC50 (Lck): < 0.1 µM | IC50 (EGFR): 1 to 10 µM | IC50 (JAK3): > 10 µM

SMILES: CC#CC(=O)N1CCC[C@@H](Nc2n[nH]c3nccc(Oc4ccc(C(=O)Nc5cc(C(F)(F)F)ccn5)cc4)c23)C1 [compound 205, 4-[(3-{[(3R)-1-(but-2-ynoyl)piperidin-3-yl]amino}-1H-pyrazolo[3,4-b]pyridin-4-yl)oxy]-N-[4-(trifluoromethyl)pyridin-2-yl]benzamide]
IC50 (Btk): < 0.1 µM | IC50 (Lck): 0.1 to 1 µM | IC50 (EGFR): 1 to 10 µM | IC50 (JAK3): > 10 µM

SMILES: CCNC(=O)N1CCC[C@@H](Nc2n[nH]c3nccc(Oc4ccc(C(=O)Nc5cc(C(F)(F)F)ccn5)cc4)c23)C1 [compound 207, (3R)-N-ethyl-3-{[4-(4-{[4-(trifluoromethyl)pyridin-2-yl]carbamoyl}phenoxy)-1H-pyrazolo[3,4-b]pyridin-3-yl]amino}piperidine-1-carboxamide]
IC50 (Btk): < 0.1 µM | IC50 (Lck): 0.1 to 1 µM | IC50 (EGFR): 1 to 10 µM | IC50 (JAK3): > 10 µM

SMILES: O=C(Nc1cc(C(F)(F)F)ccn1)c1ccc(Oc2ccnc3[nH]nc(N[C@@H]4CCN(C(=O)C5CC5)C4)c23)cc1 [compound 215, 4-[(3-{[(3R)-1-cyclopropanecarbonylpyrrolidin-3-yl]amino}-1H-pyrazolo[3,4-b]pyridin-4-yl)oxy]-N-[4-(trifluoromethyl)pyridin-2-yl]benzamide]
IC50 (Btk): < 0.1 µM | IC50 (Lck): 1 to 10 µM | IC50 (EGFR): > 10 µM | IC50 (JAK3): > 10 µM

SMILES: CCNC(=O)N1CCC[C@@H](Nc2n[nH]c3nccc(Oc4ccc(-c5nc6ccccc6s5)cc4)c23)C1 [compound 216, (3R)-3-({4-[4-(1,3-benzothiazol-2-yl)phenoxy]-1H-pyrazolo[3,4-b]pyridin-3-yl}amino)-N-ethylpiperidine-1-carboxamide]
IC50 (Btk): 0.1 to 1 µM | IC50 (Lck): 1 to 10 µM | IC50 (EGFR): > 10 µM | IC50 (JAK3): > 10 µM

SMILES: Cc1cnc(NC(=O)c2ccc(Oc3ccnc4[nH]nc(C5CCCN(C(=O)C6CCN(C)CC6)C5)c34)cc2)s1 (stereo not shown) [compound 217, N-(5-methyl-1,3-thiazol-2-yl)-4-({3-[1-(1-methylpiperidine-4-carbonyl)piperidin-3-yl]-1H-pyrazolo[3,4-b]pyridin-4-yl}oxy)benzamide]
IC50 (Btk): 0.1 to 1 µM | IC50 (Lck): 1 to 10 µM | IC50 (EGFR): 1 to 10 µM | IC50 (JAK3): > 10 µM

SMILES: O=C(Nc1cc(C(F)(F)F)ccn1)c1ccc(Oc2ccnc3[nH]nc(C4CCCN(C(=O)C5CC5)C4)c23)cc1 (stereo not shown) [compound 218, 4-{[3-(1-cyclopropanecarbonylpiperidin-3-yl)-1H-pyrazolo[3,4-b]pyridin-4-yl]oxy}-N-[4-(trifluoromethyl)pyridin-2-yl]benzamide]
IC50 (Btk): 0.1 to 1 µM | IC50 (Lck): 1 to 10 µM | IC50 (EGFR): 1 to 10 µM | IC50 (JAK3): > 10 µM

The remaining lines, values ahead:

IC50 (Btk): 0.1 to 1 µM | IC50 (Lck): > 10 µM | IC50 (EGFR): > 10 µM | IC50 (JAK3): > 10 µM
SMILES: CC#CC(=O)N1CCC[C@@H](Nc2n[nH]c3nccc(Oc4ccc(C(=O)Nc5cc(C)n(C)n5)cc4)c23)C1 [compound 185]

IC50 (Btk): 0.1 to 1 µM | IC50 (Lck): > 10 µM | IC50 (EGFR): 0.1 to 1 µM | IC50 (JAK3): < 0.1 µM
SMILES: C=CC(=O)N1CCC[C@@H](Nc2n[nH]c3nccc(Oc4ccc(C(=O)Nc5nnc(C)s5)cc4)c23)C1 [compound 187]

IC50 (Btk): < 0.1 µM | IC50 (Lck): 0.1 to 1 µM | IC50 (EGFR): 1 to 10 µM | IC50 (JAK3): > 10 µM
SMILES: Cc1cnc(NC(=O)c2ccc(Oc3ccnc4[nH]nc(N[C@@H]5CCCN(C(=O)/C=C/CN(C)C)C5)c34)cc2)s1 [compound 198, 4-[(3-{[(3R)-1-[(2E)-4-(dimethylamino)but-2-enoyl]piperidin-3-yl]amino}-1H-pyrazolo[3,4-b]pyridin-4-yl)oxy]-N-(5-methyl-1,3-thiazol-2-yl)benzamide]

IC50 (Btk): < 0.1 µM | IC50 (Lck): 1 to 10 µM | IC50 (EGFR): 1 to 10 µM | IC50 (JAK3): > 10 µM
SMILES: Cc1cnc(NC(=O)c2ccc(Oc3ccnc4[nH]nc(N[C@@H]5CCN(C(=O)C6CC6)C5)c34)cc2)s1 [compound 200, 4-[(3-{[(3R)-1-cyclopropanecarbonylpyrrolidin-3-yl]amino}-1H-pyrazolo[3,4-b]pyridin-4-yl)oxy]-N-(5-methyl-1,3-thiazol-2-yl)benzamide]

IC50 (Btk): < 0.1 µM | IC50 (Lck): 1 to 10 µM | IC50 (EGFR): > 10 µM | IC50 (JAK3): > 10 µM
SMILES: Cc1cnc(NC(=O)c2ccc(Oc3ccnc4[nH]nc(N[C@@H]5CCN(C(=O)CCCN(C)C)C5)c34)cc2)s1 [compound 202, 4-[(3-{[(3R)-1-[4-(dimethylamino)butanoyl]pyrrolidin-3-yl]amino}-1H-pyrazolo[3,4-b]pyridin-4-yl)oxy]-N-(5-methyl-1,3-thiazol-2-yl)benzamide]

IC50 (Btk): < 0.1 µM | IC50 (Lck): 0.1 to 1 µM | IC50 (EGFR): < 0.1 µM | IC50 (JAK3): 0.1 to 1 µM
SMILES: C=CC(=O)N1CCC[C@@H](Nc2n[nH]c3nccc(Oc4ccc(C(=O)Nc5cc(C(F)(F)F)ccn5)cc4)c23)C1 [compound 203, 4-[(3-{[(3R)-1-(prop-2-enoyl)piperidin-3-yl]amino}-1H-pyrazoo[3,4-b]pyridin-4-yl)oxy]-N-[4-(trifluoromethyl)pyridin-2-yl]benzamide]
